Results: patent publication US20100279944A1, “SUPPRESSION AND TREATMENT OF NEUROPATHIC PAIN” (priority 2006, published 2010)
Where a SMILES comes first, the peptide text is derived from it. [ ]: non-standard residue; d: D form.

Key:
[1] = Recovery, side effects and body weight of SCI rats after peptide treatment; type: in vivo, rat; settings: 200 μg/kg i.v., six bolus doses after SCI
Description: Seventeen individually housed male Wistar rats (Charles River, St. Constant, Quebec, 250-320 g) were used to assess mechanical allodynia and hind-limb locomotion. Males were used in these studies to avoid the confounding variable of hormonal cycles on the assessments of neuropathic pain. All protocols were carried out in accordance with the guidelines set forth by the Canadian Guide to Care and Use of Experimental Animals. All experiments conformed to international guidelines on the ethical use of animals and minimized the number of animals used and their suffering. All rats received pre-operative medication and halothane anesthesia for surgical interventions to accomplish clip compression spinal cord injury (SCI), as described previously (Gris et al., (2004), J. Neurosci., v. 24, pp. 4043-4051; Weaver et al., (2001), J. Neurotrauma, v. 18, pp. 1107-1119). A dorsal laminectomy was performed to expose the 12th thoracic (T12) spinal cord segment. The cord was injured by clip compression for 60 sec without disrupting the dura or adjacent dorsal roots. A modified aneurysm clip (Toronto Western Research Institute, University of Toronto, Toronto, Ontario, Canada) calibrated at 35 g was used at the T12 segment to produce a moderate injury. The rats received postoperative care as described previously (Gris, supra). […]

[2] = Mathison et al., 1997; cited from earlier work

N[C@H](Cc1ccccc1)C(=O)N[C@H](CC(=O)O)C(=O)NCC(=O)O [fdG, D-phenylalanine-D-aspartic acid-Glycine] (H-[dF]-[dD]-Gly-OH)
side effects of treatment [1]: No overt side effects

SGP-T: submandibular gland peptide T; amino acid sequence TDIFEGG
lowest dose showing biological effects [2]: 1 μg/kg
